The results in this text go back to patent US12329741B2, “HBV inhibitor and its use” (priority 2019, dated 2025).

As usually defined, the CC50 is the concentration giving 50% cytotoxicity. The EC50 is the concentration at which the effect is half-maximal. By AUC(0-inf) is commonly meant total exposure, with the tail of the curve extrapolated. The low end stands for low exposure, the high end for high exposure. Broadly, the Cmax is the peak of the concentration-time curve. In general, Tmax refers to the time from dosing to the highest level. The term half-life denotes the time in which the quantity being followed falls by half. Read a low half-life as fast loss.

Data set [1] can be described thus: Cytotoxicity test (Cell-titer Blue method) in HepG2.2.15 cells. The format is cell-based. The conditions noted are these: human, six days after treatment, highest concentration tested 100 μM, read-out: HepG2.2.15 cell viability CC50.
In another data set the test system is hepatitis B virus (HBV). The data set is described as follows: Anti-hepatitis B virus activity: HBV DNA in supernatant of HepG2.2.15 cells by qPCR. The conditions noted are these: 192 h, supernatant collected on day 8. The class given is cell-based.
A short description of data set [2]: Pharmacokinetics (PK) experiment, intragastric administration in rats. The format is in vivo, Male SD rats. The following applies: for absorption after oral administration / blood exposure: oral administration; for AUC(0-inf) / Cmax / Tmax / half-life / AUC(0-t): male, SD, rat, po, intragastric administration 20 mg/kg, plasma; for AUC(0-t): read-out: AUC0-24. The method, then: Male SD rats weighing 215-343 grams were fasted overnight before the test. The test compound was completely dissolved in 5% of the total volume of DMSO and then diluted with 30% Captisol to 2 mg/mL, and then it was administered by gavage at dosage of 20 mg/kg. In 15 minutes, 30 minutes, 1, 2, 4, 6, 8 and 24 hours after the administration, blood was taken from the end of the tails of rats at about 0.3 ml at each time point. The blood sample was placed in a centrifuge tube containing K2-EDTA, and centrifuged (@3500 rpm, 10 minutes, 4° C.). Take the plasma and store it in an ultra-low temperature refrigerator at −80° C. 50 μL of plasma sample was mixed with 135 μl of acetonitrile (including the internal standard IS), and then vortexed for 30 s, centrifuged at 15000 rpm at 4° C. for 10 min, and 10 μl of supernatant was taken as sample and injected into LC-MS/MS for analysis.

As to `C#CCNC(=O)C(=O)c1cc(C(=O)Nc2ccc(F)c(Cl)c2)c(C)o1` [Compound 2, 2-Methyl-3-amide-N-(3-chloro-4-fluorophenyl)-5-(2-propargylamino-oxalyl)-furan], the CC50 at 6 days in data set [1] was 61 µM. In addition, the EC50 in the data set with hepatitis B virus (HBV) was in the range of 5 to 50 µM. Also, in data set [2], the “absorption after oral administration” value was “well absorbed” and the blood exposure result is “relatively high”.
`Cc1oc(C(=O)C(=O)NCc2nccn2C)cc1C(=O)Nc1ccc(F)c(Cl)c1` [Compound 8]: in data set [1], the CC50 at 6 days is above 100 µM. Moreover, the EC50 with hepatitis B virus (HBV) is 5 to 50 µM. Besides, in data set [2], the “absorption after oral administration” value is “well absorbed” and the blood exposure result is given as “relatively high”.
As to `Cc1oc(C(=O)C(=O)NCc2cn(C3CC3)nn2)cc1C(=O)Nc1ccc(F)c(Cl)c1` [Compound 11, 2-Methyl-3-amide-N-(3-chloro-4-fluorophenyl)-5-(2-(1-cyclopropyl-1H-[1,2,3]triazole-4-ylmethylamino)-oxalyl)-furan], in data set [2], the “absorption after oral administration” value is “well absorbed” and the blood exposure entry is listed as “relatively high”.
Take `Cc1sc(C(=O)C(=O)NC(C)(C)C)c(C)c1C(=O)Nc1ccc(F)c(Cl)c1` [Compound 36, 2,4-Dimethyl-3-amide-N-(3-chloro-4-fluorophenyl)-5-(2-tert-butylamino-oxalyl)-thiophene]: the CC50 at 6 days in data set [1] was above 100 µM. The same compound registered an EC50 in the data set with hepatitis B virus (HBV) of at most 0.05 µM. For the same compound, in data set [2], the AUC(0-inf) came to 32600 ng·h/mL, the Cmax worked out at 3730 ng/mL, the time of peak concentration (Tmax) was determined as 0.5 h and the half-life was 12.2 h. Moreover, in data set [2], the AUC(0-t) amounted to 25800 ng·h/mL, the “absorption after oral administration” value is “well absorbed” and the blood exposure entry is “relatively high”.
Take `CC(C)(C)NC(=O)C(=O)c1cc(C(=O)Nc2ccc(F)cc2)co1` [Compound 42, 3-Amide-N-(4-fluorophenyl)-5-(2-tert-butylamino-oxalyl)-furan]: in data set [1], the CC50 at 6 days was above 100 µM. In the data set with hepatitis B virus (HBV), this compound showed an EC50 of 5 to 50 µM. Further, in data set [2], the “absorption after oral administration” value is given as “well absorbed” and the blood exposure entry is “relatively high”.
For the compound `Cc1c(C(=O)C(=O)NC(C)(C)C)c(C)n(C)c1C(=O)Nc1ccc2occc2c1` [Compound 52, 1,3,5-Trimethyl-2-amide-N-(benzofuran-5)-4-(2-tert-butylamino-oxalyl)-pyrrole], the CC50 at 6 days in data set [1] is above 100 µM. Besides, in the data set on hepatitis B virus (HBV), the EC50 is at most 0.05 µM. For the same compound, in data set [2], the AUC(0-inf) was 17100 ng·h/mL, the Cmax is 3670 ng/mL, the Tmax turned out to be 1 h and the half-life is 2.39 h. Moreover, the AUC(0-t) in data set [2] was determined as 17100 ng·h/mL.
With `C#CCNC(=O)C(=O)c1c(C)c(C(=O)Nc2ccc3occc3c2)n(C)c1C` [Compound 53, 1,3,5-Trimethyl-2-amide-N-(benzofuran-5-yl)-4-(2-propargylamino-oxalyl)-pyrrole], the 50% cytotoxic concentration (CC50) at 6 days in data set [1] is above 100 µM. In the data set with hepatitis B virus (HBV), this compound came in with an EC50 of at most 0.05 µM. Also, in data set [2], the AUC(0-inf) was 26400 ng·h/mL, the Cmax worked out at 3930 ng/mL, the Tmax was 1.58 h and the half-life is 2.48 h. For the same compound, in data set [2], the AUC(0-t) was determined as 26300 ng·h/mL.
Consider `C#CC(C)(C)NC(=O)C(=O)c1c(C)c(C(=O)Nc2ccc3occc3c2)n(C)c1C` [Compound 54, 1,3,5-Trimethyl-2-amide-N-(benzofuran-5-yl)-4-(2-(1,1-dimethylpropynamido)-oxalyl)-pyrrole], for which the CC50 at 6 days in data set [1] is above 100 µM. Besides, the EC50 in the data set with hepatitis B virus (HBV) is at most 0.05 µM. Further, in data set [2], the AUC(0-inf) was 87400 ng·h/mL, the peak level (Cmax) was 9430 ng/mL, the Tmax is 1.67 h and the half-life is 2.52 h. In addition, the AUC(0-t) in data set [2] came out at 87200 ng·h/mL.
